The values that follow come from patent publication US12630509B2, “Heterocyclic NMDA antagonists” (TAKEDA PHARMACEUTICAL COMPANY LIMITED, priority 2019, dated 2026).

Test system in one test: not given
Test: not given
The note with it: continuous intravenous administration; cited from earlier work.
With `C[C@@H]([C@@H](O)c1ccc(O)cc1)N1CCC(O)(c2ccccc2)CC1` [CP-101,606], the treatment-resistant depression symptoms entry is reported as “significantly improved”.

Test system in a further test: not given
Test: not given
The note with it: rodents; cited from earlier work.
As for `C[C@@H]([C@@H](O)c1ccc(O)cc1)N1CCC(O)(c2ccccc2)CC1` [CP-101,606], the “number of occurrences and depth of cortical spreading depression” value is “suppress the number of occurrences of and the depth of cortical spreading depression”.

Take Ro25-6981: the “number of occurrences and depth of cortical spreading depression” value was “suppress the number of occurrences of and the depth of cortical spreading depression”.

The target in the next test is NMDA receptor composed of four subunits including two sets of heterodimers of NR1 and NR2B (GRIN1/GRIN2B) expressed in HEK 293 cells (Homo sapiens, UniProt Q13224). Nature of the test: NR2B Ca2+ influx assay. In kind it is cell-based. The note with it: HEK293, final concentration 10 μM; glutamic acid and glycine induced Ca2+ influx, HEK 293 cells expressing human GRIN1 and GRIN2B; read-out: % inhibited(10 μM). The method, then: The HEK 293 cells that express GRIN1 and GRIN2B were purchased from ChanTest (human NMDA (NR1/NR2B) receptor-expressing, stable replicating cell line (HEK 293) catalog no. CT6121).
NMDA receptor composed of four subunits including two sets of heterodimers of NR1 and NR2B (GRIN1/GRIN2B) expressed in HEK 293 cells, sequence (Q13224 27-1484, other chains not shown): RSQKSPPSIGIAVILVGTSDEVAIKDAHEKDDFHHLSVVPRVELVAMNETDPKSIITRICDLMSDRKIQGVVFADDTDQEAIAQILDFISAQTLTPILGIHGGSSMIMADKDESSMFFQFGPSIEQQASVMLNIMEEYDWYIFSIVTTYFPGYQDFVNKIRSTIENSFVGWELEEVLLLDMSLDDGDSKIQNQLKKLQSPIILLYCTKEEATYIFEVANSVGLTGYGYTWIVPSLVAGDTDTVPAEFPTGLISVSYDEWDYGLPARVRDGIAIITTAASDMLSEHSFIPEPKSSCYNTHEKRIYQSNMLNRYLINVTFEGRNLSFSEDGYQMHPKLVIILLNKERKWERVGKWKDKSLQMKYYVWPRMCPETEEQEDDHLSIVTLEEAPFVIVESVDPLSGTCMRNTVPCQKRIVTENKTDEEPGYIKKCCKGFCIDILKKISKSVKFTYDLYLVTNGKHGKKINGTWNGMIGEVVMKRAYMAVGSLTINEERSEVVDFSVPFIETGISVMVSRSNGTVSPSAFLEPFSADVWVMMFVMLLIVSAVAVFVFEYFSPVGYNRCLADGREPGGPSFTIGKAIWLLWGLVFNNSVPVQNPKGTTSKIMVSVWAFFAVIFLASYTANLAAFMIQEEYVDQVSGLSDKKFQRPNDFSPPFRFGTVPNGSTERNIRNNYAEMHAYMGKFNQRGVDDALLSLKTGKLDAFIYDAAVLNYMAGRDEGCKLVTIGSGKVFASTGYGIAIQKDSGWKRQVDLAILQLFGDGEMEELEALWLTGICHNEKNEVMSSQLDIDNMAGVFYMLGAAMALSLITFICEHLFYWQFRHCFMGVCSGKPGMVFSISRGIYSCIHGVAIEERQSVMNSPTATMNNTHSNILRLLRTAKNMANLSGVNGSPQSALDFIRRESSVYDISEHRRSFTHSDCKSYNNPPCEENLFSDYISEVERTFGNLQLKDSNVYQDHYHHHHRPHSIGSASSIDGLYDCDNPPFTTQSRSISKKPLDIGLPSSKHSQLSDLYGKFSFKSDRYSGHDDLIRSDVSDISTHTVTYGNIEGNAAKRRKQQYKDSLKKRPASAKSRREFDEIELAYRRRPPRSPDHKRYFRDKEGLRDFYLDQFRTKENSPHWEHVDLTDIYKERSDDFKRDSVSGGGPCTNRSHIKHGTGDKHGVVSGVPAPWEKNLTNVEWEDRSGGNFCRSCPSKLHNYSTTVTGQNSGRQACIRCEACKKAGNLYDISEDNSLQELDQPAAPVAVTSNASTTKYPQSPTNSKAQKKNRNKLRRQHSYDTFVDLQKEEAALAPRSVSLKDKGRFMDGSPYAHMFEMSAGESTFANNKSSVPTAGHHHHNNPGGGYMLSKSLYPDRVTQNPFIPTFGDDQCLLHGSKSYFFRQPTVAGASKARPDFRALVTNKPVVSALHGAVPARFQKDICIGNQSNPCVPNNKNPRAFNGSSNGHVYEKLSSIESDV
Intracellular calcium-ion (Ca^2+) influx caused by glycine and glutamic acid respectively binding to NR1 and NR2B was used as an index of NMDA receptor activation.
The HEK 293 cells expressing GRIN1 and GRIN2B were cultured in a cell culture flask in an incubator (37° C., in 5% CO2) using a DMEM/F-12 (Cosmo Bio, 10-092-CM) medium supplemented with 10% FBS (fetal bovine serum, AusGene), 100 units/mL penicillin, 100 μg/mL streptomycin, 500 μg/mL neomycin, 100 μg/mL Zeocin (registered trademark of Invitrogen), and 5 μg/mL blasticidin.
On the day before the assay, the cells were detached from the flask by trypsinization, suspended in a seeding medium (DMEM (Invitrogen, 31053) supplemented with 10% FBS, 100 units/mL penicillin, and 100 μg/mL streptomycin) so as to be 8×10^5 cells/mL, seeded at 25 μL per well in a 384-well plate (Falcon, 356663) so as to be 20,000 cells/well, and cultured overnight using the incubator. On the day of the assay, tetracycline (Wako Pure Chemical, 209-16561) was diluted with the seeding medium at 2 μg/mL, and added at 25 μL/well to the plate into which the cells were seeded, and this was cultured for 2 hours in the incubator. Afterward, the medium was removed and washed with an assay buffer (137 mM NaCl, 4 mM KCl, 1.8 mM CaCl2), 10 mM HEPES (pH 7.2), 10 mM glucose, 0.1% BSA) at 50 μL/well. Next, a loading buffer (buffer wherein 2.5 μM Fluo-4 AM, 2 mM amaranth, and 1 mM tartrazine are added to the assay buffer) was added at 25 μL/well, and this was incubated in the incubator for 30 minutes and for 15 minutes at room temperature. Solutions wherein the Example compounds were diluted with the above-mentioned assay buffer so as to be 30 μM (final concentration 10 μM) were added at 25 μL/well, and these were left standing for 15 minutes at room temperature. Using FDSS7000EX/μCELL (Hamamatsu Photonics), an assay buffer including 30 μM glutamic acid and 30 μM glycine was added at 25 μL/well, and a fluorescence signal of an Excitation wavelength of 480 nm and an Emission wavelength of 540 nm was measured every 3 seconds for 5 minutes. The inhibitory activity was calculated as a relative activity value (inhibitory rate) wherein relative to an integrated value of florescence values of each well, an integrated value of fluorescence values of a well into which an assay buffer without glutamic acid and glycine was defined as 100% inhibition.
Turning to `Cc1cc(F)c(Oc2ccc(CN3C(=O)C[C@H](O)[C@@H]3C)cn2)c(F)c1` [Example 31, (4S,5S)-1{[-6-(2,6-difluoro-4-methylphenoxy)pyridin-3-yl]methyl}4-hydroxy-5-methylpyrrolidin-2-one], the inhibition at 10 µM was found to be 97%. On to `Cc1cc(F)c(Oc2ncc(CN3C(=O)OC[C@@H]3C)cn2)c(F)c1` [Example 32, (4S)-3-{[2-(2,6-difluoro-4-methylphenoxy)pyrimidin-5-yl]methyl}-4-methyl-1,3-oxazolidin-2-one], for which the inhibition at 10 µM came to 92%. Take `C[C@H]1CNC(=O)N1Cc1ccc(Oc2c(F)cc(F)cc2F)nc1` [Example 33, (5S)-5-methyl-1-{[6-(2,4,6-trifluorophenoxy)pyridin-3-yl]methyl}imidazolidin-2-one]: the inhibition at 10 µM stood at 97%. On the same count and under the same terms, the figure for `C[C@H]1[C@@H](O)C(F)(F)C(=O)N1Cc1ccc(Oc2c(F)cc(F)cc2F)nc1` [Example 34, (4R,5S)-3,3-difluoro-4-hydroxy-5-methyl-1-{[6-(2,4,6-trifluorophenoxy)pyridin-3-yl]methyl}pyrrolidin-2-one] is 97%; for `C[C@H]1CNC(=O)N1Cc1ccc(Oc2ccc(F)cc2F)nc1` [Example 35, (5S)-1-{[6-(2,4-difluorophenoxy)pyridin-3-yl]methyl}5-methylimidazolidin-2-one] it is 96%. For `C[C@H]1[C@@H](O)C(F)(F)C(=O)N1Cc1ccc(Oc2ccc(F)cc2F)nc1` [Example 36, (4R,5S)-1-{[6-(2,4-difluorophenoxy)pyridin-3-yl]methyl}-3,3-difluoro-4-hydroxy-5-methylpyrrolidin-2-one], the inhibition at 10 µM worked out at 97%. On the same count and under the same terms, for `C[C@H]1[C@@H](O)CC(=O)N1Cc1ccc(Oc2ccc(F)cc2F)nc1` [Example 37, (4S,5S)-1{[-6-(2,4-difluorophenoxy)pyridin-3-yl]methyl}-4-hydroxy-5-methylpyrrolidin-2-one] the value was 97%.

For the compound `C[C@H]1[C@@H](O)CC(=O)N1Cc1ccc(Oc2ccc(C(F)F)cc2F)nc1` [Example 38, (4S,5S)-1-({6-[4-(difluoromethyl)-2-fluorophenoxy]pyridin-3-yl}methyl)-4-hydroxy-5-methylpyrrolidin-2-one], the inhibition at 10 µM is 95%. Same read-out and setting: the figure for `Cc1ccc(Oc2ccc(CN3C(=O)OCC3CF)cn2)c(F)c1` (stereo not drawn) [Example 39, 4-(fluoromethyl)-3-{[6-(2-fluoro-4-methylphenoxy)pyridin-3-yl]methyl}-1,3-oxazolidin-2-one] is 92%; for `Cc1ccc(Oc2ccc(CN3C(=O)OCC3C(F)F)cn2)c(F)c1` (stereo not drawn) [Example 40, 4-(difluoromethyl)-3-{[6-(2-fluoro-4-methylphenoxy)pyridin-3-yl]methyl}-1,3-oxazolidin-2-one] it is 95%; for `C[C@H]1[C@@H](O)CC(=O)N1Cc1ccc(Oc2ccc(C(F)(F)F)cc2F)nc1` [Example 41, (4S,5S)-1-({6-[2-fluoro-4-(trifluoromethyl)phenoxy]pyridin-3-yl}methyl)-4-hydroxy-5-methylpyrrolidin-2-one] it is 95%.

In the case of `C[C@H]1CCC(=O)N1Cc1cnc(Oc2ccc(C(F)F)cc2F)nc1` [Example 42, (5S)-1-({2-[4-(difluoromethyl)-2-fluorophenoxy]pyrimidin-5-yl}methyl)-5-methylpyrrolidin-2-one], the inhibition at 10 µM came out at 97%.

With `C[C@H]1[C@@H](O)CC(=O)N1Cc1ccc(Oc2ccc(Cl)cc2F)nc1` [Example 43, (4S,5S)-1-{[6-(4-chloro-2-fluorophenoxy)pyridin-3-yl]methyl}4-hydroxy-5-methylpyrrolidin-2-one], the inhibition at 10 µM came to 98%. Regarding `Cc1ccc(Oc2ncc(CN3C(=O)CC[C@@H]3C)cn2)c(F)c1` [Example 44, (5S)-1-{[2-(2-fluoro-4-methylphenoxy)pyrimidin-5-yl]methyl}-5-methylpyrrolidin-2-one], the inhibition at 10 µM stood at 97%. Same read-out and setting: for `C[C@H]1CCC(=O)N1Cc1cnc(Oc2ccc(F)cc2F)nc1` [Example 45, (5S)-1-{[2-(2,4-difluorophenoxy)pyrimidine-5-yl]methyl}-5-methylpyrrolidine-2-one] the value was 96%; for `C[C@H]1CCC(=O)N1Cc1cnc(Oc2ccc(Cl)cc2F)nc1` [Example 46, (5S)-1-{[2-(4-chloro-2-fluorophenoxy)pyrimidin-5-yl]methyl}-5-methylpyrrolidin-2-one], 97%. The same measure, in the same setting: the figure for `C[C@H]1CCC(=O)N1Cc1ccc(Oc2ccc(C(F)F)cc2F)nc1` [Example 47, (5S)-1-({6-[4-(difluoromethy)-2-fluorophenoxy]pyridin-3-yl}methyl)-5-methylpyrrolidin-2-one] is 99%; for `C[C@H]1CCC(=O)N1Cc1ccc(Oc2ccc(F)cc2F)nc1` [Example 48, (5S)-1-{[6-(2,4-difluorophenoxy)pyridin-3-yl]methyl}-5-methylpyrrolidin-2-one] it is 98%; for `C[C@H]1COC(=O)N1Cc1cnc(Oc2ccc(Cl)cc2F)nc1` [Example 49, (4S)-3-{[2-(4-chloro-2-fluorophenoxy)pyrimidin-5-yl]methyl}-4-methyl-1,3-oxazolidin-2-one] it is 97%. Take `C[C@H]1COC(=O)N1Cc1ccc(Oc2ccc(C(F)F)cc2F)nc1` [Example 50, (4S)-3-({6-[4-(difluoromethyl)-2-fluorophenoxy]pyridin-3-yl}methyl)-4-methyl-1,3-oxazolidin-2-one]: the inhibition at 10 µM was 98%.

A further test relates to NMDA receptor containing the NR2B subunit. Briefly: [3H]MK-801 binding test in vivo. More on the design: species or system Sprague Dawley rats. The note with it: [3H]MK-801 binding inhibitory rate in rat hippocampus, vehicle control 100%, excess MK-801 maleate 0%. The protocol:
In order to confirm that compounds of the present disclosure exert functional antagonistic action on an NMDA receptor containing the NR2B subunit in vivo, a binding test was performed using tritium-labeled form of MK-801 ((5R,10S)-5-methyl-10,11-dihydro-5H-5,10-epiminodibenzo[a,d][7]annulene) ([3H]MK-801), which is a compound capable of binding to the opening site of the NMDA receptor.
The example compound (3 mg/kg/2 mL, 0.5% MC water) or vehicle (0.5% MC water 2 ml) was orally administered (p.o.) to Sprague Dawley rats (body weight 180-260 g). After a certain time (around after time-to maximum blood concentration), [3H]MK-801 (20 μCi/kg/mL, Muromachi Kikai) was intravenously administered. After 10 min, the rats were euthanized by decapitation, and subjected to craniotomy, and the hippocampus was collected. The collected hippocampus was homogenized in 30 volumes (30 mL per 1 g tissue) ice-cooled 20 mM HEPES (pH7.5, Hampton Research) using a homogenizer (T10 basic Ultra-Turrax) for 10 sec. […] The filter was washed four times with ice-cooled saline (5 mL, Otsuka Pharmaceutical), put into a scintillation vial, and then 10 mL of liquid scintillator A (FUJIFILM Wako Pure Chemical Corporation) was added thereto, and the residual radioactivity was counted using liquid scintillation counter (ALOKA LSC-6100).
Separately, the residual radioactivity in 100 μL of the homogenate before the filtration was counted in the same way. The value of [the residual radioactivity in the filter/the residual radioactivity in the 100 μL of the homogenate] was calculated as a [3H]MK-801 binding rate to the NMDA receptor expressing in each individual hippocampus tissue. […] The difference between the percentage of [^3H]MK-801 binding rate in the group orally administered with the example compound and that in the vehicle control group (100%) was analyzed as [^3H]MK-801 binding inhibitory rate by the example compound.
Turning to `C[C@H]1[C@@H](O)CC(=O)N1Cc1ccc(Oc2ccc(C(F)F)cc2F)nc1` [Example 38, (4S,5S)-1-({6-[4-(difluoromethyl)-2-fluorophenoxy]pyridin-3-yl}methyl)-4-hydroxy-5-methylpyrrolidin-2-one], the “Inhibitory Rate (3 mg/kg, p.o.)” value came to 22%. Same read-out and setting: the figure for `C[C@H]1CCC(=O)N1Cc1cnc(Oc2ccc(F)cc2F)nc1` [Example 45, (5S)-1-{[2-(2,4-difluorophenoxy)pyrimidine-5-yl]methyl}-5-methylpyrrolidine-2-one] is 13%. On the same count and under the same terms, for `C[C@H]1COC(=O)N1Cc1cnc(Oc2ccc(Cl)cc2F)nc1` [Example 49, (4S)-3-{[2-(4-chloro-2-fluorophenoxy)pyrimidin-5-yl]methyl}-4-methyl-1,3-oxazolidin-2-one] the value was 19%.

Test system in another test: not given
Test: not given
Conditions: intravenous single administration; cited from earlier work.
`CNC1(c2ccccc2Cl)CCCCC1=O` (stereo not drawn) [ketamine]: the “depression symptoms associated with major depression and bipolar disorder” value was “rapidly and continuously improves depression symptoms”.
